Reference: patent US20090291941A1, “Tyrosine Kinase Inhibitors” (priority 2005, published 2009)

Molecular target: T1, human c-Met (Homo sapiens, UniProt P08581)
T1 construct: Recombinant GST-tagged cytosolic domains of human c-Met; 6xHis; made in house; host or cells: baculovirus system; Sf9 or Sf21 insect cells
Assay: In vitro c-Met kinase assay (homogeneous time-resolved fluorescence tyrosine kinase assay)
Assay type: biochemical
Details: recombinant GST-tagged cytosolic domain of c-Met, 0.2 nM enzyme, 50 μM MgATP, HTRF readout
Source text: Recombinant GST-tagged cytosolic domains of human c-Met and other receptor tyrosine kinases including mouse c-Met, human Ron, KDR, IGFR, EGFR, FGFR, Mer, TrkA and Tie2 are used to determine whether the compounds of the instant invention modulate the enzymatic activities of these kinases.
Soluble recombinant GST-tagged cytosolic domains of c-Met and other receptor tyrosine kinases are expressed in a baculovirus system (Pharmingen) according to a protocol recommended by the manufacturer. The c-DNA encoding each cytosolic domain is subcloned into a baculovirus expression vector (pGcGHLT-A, B or C, Pharmingen) containing an in frame 6× histidine tag and a GST tag. […] The protein concentrations of the fusion proteins are determined using Coomassie Plus Protein Assay (Pierce) with BSA as standard.
The kinase activities of c-Met and other kinases are measured using a modified version of the homogeneous time-resolved tyrosine kinase assay described by Park et al. (1999, Anal. Biochem. 269:94-104).
The procedure for determining the potency of a compound to inhibit c-Met kinase comprises the following steps: • 1. […] Read HTRF signals on a Victor reader (PerkinElmer) in HTRF mode after 60 min. • 6. IC50 is determined by fitting the observed relationship between compound concentration and HTRF signal with a 4-parameter logistic equation. […]

T1 sequence (P08581 956-1390 limits assumed): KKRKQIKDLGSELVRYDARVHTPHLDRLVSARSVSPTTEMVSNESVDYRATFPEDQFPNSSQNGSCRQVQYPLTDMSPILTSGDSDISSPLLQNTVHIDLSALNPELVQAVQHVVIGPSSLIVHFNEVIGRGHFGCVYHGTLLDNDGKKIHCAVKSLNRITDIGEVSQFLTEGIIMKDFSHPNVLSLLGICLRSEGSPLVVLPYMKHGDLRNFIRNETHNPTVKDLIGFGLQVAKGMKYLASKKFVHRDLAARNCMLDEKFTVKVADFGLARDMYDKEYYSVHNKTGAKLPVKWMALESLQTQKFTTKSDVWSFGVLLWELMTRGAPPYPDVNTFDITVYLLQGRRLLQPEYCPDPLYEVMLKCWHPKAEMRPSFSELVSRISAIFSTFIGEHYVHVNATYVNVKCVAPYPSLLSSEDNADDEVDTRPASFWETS

Structure (SMILES)	IC50 [µM]
Nc1ccc2c(c1)C(=O)Nc1cc(-c3ccccc3)cnc1C=C2 [Compound 14, 8-amino-3-phenylpyrido[3,2-c][2]benzazocin-6(5H)-one]	< 50
Nc1ccc2c(c1)NC(=O)c1cc(-c3ccccc3)cnc1C=C2 [Compound 15, 8-amino-3-phenylpyrido[3,2-c][1]benzazocin-5(6H)-one]	< 50
